The subject of the test is TLR2 induced IL-6 in peripheral blood mononuclear cells (PBMCs). As to the kind of experiment: PBMC TLR2 Induced IL-6 Assay. Type of test: cell-based, human. Particulars: read-out: Cell IC50. As for the experimental part:
Peripheral blood mononuclear cells (PBMCs) were isolated from human blood containing the anti-coagulant EDTA (2.5 mM) by centrifugation over a FICOLL® gradient. PBMCs (250000 cells/well) were cultured in assay media (RPMI with 10% heat inactivated FCS) with compounds for 30 minutes at 37° C. in a 5% CO2 incubator. Following pretreatment with compounds, cells were stimulated for 5 hours with 10 μg/ml lipoteichoic acid (Invivogen, San Diego, Calif.), a TLR2 agonist. At the end of the culture, plates were centrifuged at 1800 rpm for 10 minutes to pellet the cells. Supernatants were harvested and analyzed for IL-6 levels by ELISA (BD Biosciences, San Jose, Calif.). Inhibition was calculated as either an IC50 or EC50. EC50 determinations are indicated with an asterisk.

[1] abbreviates: human PBMCs, 10 μg/ml lipoteichoic acid for 5 hours, IL-6 by ELISA, value without asterisk.
Where [2] appears, read: Homo sapiens, PBMC, 5 h, human PBMCs, 10 μg/ml lipoteichoic acid for 5 hours, IL-6 by ELISA, value without asterisk.

Read-outs that look alike come from different tables or passages of the source.

The term IC50 denotes the concentration needed to halve the response being measured. With `CC(O)([C@H](F)CNC(=O)c1cnc(Nc2ccc3ncsc3c2)cc1NC1CCCC1F)C(F)(F)F` (stereo in doubt) [Example 339], the IC50 under setting [1] turned out to be 460 nM.
Take `CC(O)([C@H](F)CNC(=O)c1cnc(Nc2ccc3ncsc3c2)cc1NC1CCCC1F)C(F)(F)F` (stereo in doubt) [Example 340]: the IC50 under setting [1] worked out at 419 nM.
The same measure, in the same setting: for `CC(O)([C@H](F)CNC(=O)c1cnc(Nc2ccc3ncsc3c2)cc1NC1CCCC1F)C(F)(F)F` (stereo in doubt) [Example 341] the value was 97 nM.
The same measure, in the same setting: the same measure for `CC(O)([C@H](F)CNC(=O)c1cnc(Nc2ccc3ncsc3c2)cc1NC1CCCC1F)C(F)(F)F` (stereo in doubt) [Example 342]: 71 nM.
In the case of `O=C(NC[C@@H](F)CO)c1cnc(Nc2ccc3[nH]c(=O)sc3c2)cc1NC1CCCC1` [Example 6], the IC50 under setting [2] came out at 231 nM.
On to `O=C(NC[C@@H](F)CO)c1cnc(Nc2ccc3ncsc3c2)cc1NC1CC1` [Example 7], for which the IC50 under setting [2] came to 732 nM.
On to `CC(C)Nc1cc(Nc2ccc3nsnc3c2)ncc1C(=O)NC[C@@H](F)C(O)C(C)C` (stereo partly shown) [Example 22], for which the IC50 under setting [1] turned out to be 456 nM.
The same measure, in the same setting: the same measure for `CC(C)Nc1cc(Nc2ccc3nsnc3c2)ncc1C(=O)NC[C@@H](F)C(O)C(C)C` (stereo partly shown) [Example 23]: 165 nM.
As for `CC(C)Nc1cc(Nc2ccc3ncsc3c2)ncc1C(=O)NC[C@@H](F)C(O)(C1CC1)C(F)(F)F` (stereo partly shown) [Example 30], the IC50 under setting [2] came to 228 nM.
With `CC(C)Nc1cc(Nc2ccc3ncsc3c2)ncc1C(=O)NC[C@@H](F)C(O)(C1CC1)C(F)(F)F` (stereo partly shown) [Example 31], the IC50 under setting [1] was 249 nM.
`CC(C)(O)[C@H](F)CNC(=O)c1cnc(Nc2ccc3[nH]c(=O)sc3c2)cc1NC1CCCC1` [Example 34]: the IC50 under setting [2] was 152 nM.
With `CC(C)Nc1cc(Nc2ccc3[nH]c(=O)sc3c2)ncc1C(=O)NC[C@@H](F)C(C)(C)O` [Example 40], under setting [2], the IC50 came out at 503 nM.
The same measure, in the same setting: the same measure for `CC(C)(O)[C@H](F)CNC(=O)c1cnc(Nc2ccc3ncsc3c2)cc1N[C@@H](c1cccc(F)c1)[C@H](O)CO` [Example 44]: 699 nM; for `CC(C)(O)[C@H](F)CNC(=O)c1cnc(Nc2ccc3ncsc3c2)cc1NC1CCC1` [Example 46]: 183 nM; for `CC(C)Nc1cc(Nc2ccc3ncccc3c2)ncc1C(=O)NC[C@@H](F)C(C)(C)O` [Example 47]: 571 nM.
On to `CC(C)Nc1cc(Nc2ccc3nscc3c2)ncc1C(=O)NC[C@@H](F)C(C)(C)O` [Example 56], for which the IC50 under setting [2] amounted to 330 nM.
The same measure, in the same setting: the same measure for `CC(C)(O)[C@H](F)CNC(=O)c1cnc(Nc2ccc3ncsc3c2)cc1NCC1CC1` [Example 62]: 288 nM; for `CC(C)(O)[C@H](F)CNC(=O)c1cnc(Nc2ccc3ncsc3c2)cc1N[C@@H](c1cc(Cl)cc(Cl)c1)[C@H](O)CO` [Example 77]: 377 nM; for `CC(C)(O)[C@H](F)CNC(=O)c1cnc(Nc2ccc3nonc3c2)cc1NC1CC1` [Example 80]: 271 nM.
Same read-out and setting: for `CC(C)(O)[C@H](F)CNC(=O)c1cnc(Nc2ccc3ncncc3c2)cc1NC1CC1` [Example 81] the value was 100 nM; for `CC(C)(O)[C@H](F)CNC(=O)c1cnc(Nc2ccc3ncsc3c2)cc1NCC(F)(F)F` [Example 84], 501 nM.
The same measure, in the same setting: for `CC(C)(O)[C@H](F)CNC(=O)c1cnc(Nc2ccc3nonc3c2)cc1NC1CCOCC1` [Example 99] the value was 258 nM.
Regarding `CC(C)(O)[C@H](F)CNC(=O)c1cnc(Nc2ccc3ncsc3c2)cc1NCC1CCCC1O` (stereo partly shown) [Example 112], the IC50 under setting [1] worked out at 203 nM.
On the same count and under the same terms, for `CC(C)(O)[C@H](F)CNC(=O)c1cnc(Nc2ccc3ncsc3c2)cc1NCC1CCCC1O` (stereo partly shown) [Example 113] the value was 803 nM; for `CC(C)(O)[C@H](F)CNC(=O)c1cnc(Nc2ccc3ncsc3c2)cc1NCC1CCCC1O` (stereo partly shown) [Example 114], 491 nM; for `CC(C)(O)[C@H](F)CNC(=O)c1cnc(Nc2ccc3ncsc3c2)cc1NCC1CCCC1F` (stereo partly shown) [Example 116], 296 nM.
The same measure, in the same setting: the same measure for `CC(C)(O)[C@H](F)CNC(=O)c1cnc(Nc2ccc3ncsc3c2)cc1NCC1CCCC1F` (stereo partly shown) [Example 117]: 363 nM; for `CC(C)(O)[C@H](F)CNC(=O)c1cnc(Nc2ccc3ncsc3c2)cc1NCC1CCCC1F` (stereo partly shown) [Example 118]: 109 nM.
For `CC(C)(O)[C@H](F)CNC(=O)c1cnc(Nc2ccc3ccncc3c2)cc1NC1CC1` [Example 132], the IC50 under setting [2] came out at 350 nM.
Turning to `CNC(=O)c1cnc(Nc2ccc3ncsc3c2)cc1N[C@@H](c1ccccc1)[C@H](O)CO` [Example 143], the half-maximal inhibitory concentration (IC50) (Homo sapiens, PBMC, 5 h) amounted to 295 nM.
On to `CNC(=O)c1cnc(Nc2ccc3ncsc3c2)cc1N[C@H](CO)c1ccccc1` [Example 145], for which the IC50 (Homo sapiens, PBMC, 5 h) was determined as 260 nM.
As for `N#CCNC(=O)c1cnc(Nc2ccc3ncsc3c2)cc1NC1CCCC1` [Example 153], the half-inhibitory concentration (IC50) under setting [2] was 510 nM.
Same read-out and setting: for `CC(C)CCNc1cc(Nc2ccc3ncsc3c2)ncc1C(=O)NC[C@@H](F)C(C)(C)O` [Example 163] the value was 230 nM; for `CC(C)(O)CCNC(=O)c1cnc(Nc2ccc3ncsc3c2)cc1N[C@H]1CC[C@@H](F)CC1` [Example 174], 150 nM; for `CC(C)Nc1cc(Nc2ccc3ncsc3c2)ncc1C(=O)NCC[C@@H](C)NC(=O)N1CCOCC1` [Example 182], 508 nM.
Take `CC(C)CCNC(=O)c1cnc(Nc2ccc3ncsc3c2)cc1NC(C)C` [Example 210]: the IC50 under setting [2] came out at 551 nM.
On the same count and under the same terms, the same measure for `CC(C)Nc1cc(Nc2ccc3ncsc3c2)ncc1C(=O)N[C@H]1CCN(S(C)(=O)=O)C1` [Example 215]: 566 nM; for `CC(C)(O)[C@H](F)CNC(=O)c1cnc(Nc2ccn3nccc3n2)cc1NCC(F)(F)F` [Example 238]: 595 nM.
As to `CCNc1cc(Nc2ccn3nccc3n2)ncc1C(=O)NC[C@@H](F)C(C)(C)O` [Example 239], the IC50 under setting [2] amounted to 379 nM.
As for `CC(C)(O)[C@H](F)CNC(=O)c1cnc(Nc2ccn3nccc3n2)cc1NC1CCC1` [Example 241], under setting [2], the IC50 was 516 nM.
On to `CC(C)(O)[C@H](F)CNC(=O)c1cnc(Nc2ccn3nccc3n2)cc1NC1CCC(F)(F)C1` (stereo partly shown) [Example 242], for which, under setting [1], the IC50 was found to be 179 nM.
On the same count and under the same terms, for `CC(C)(O)[C@H](F)CNC(=O)c1cnc(Nc2ccn3nccc3n2)cc1NC1CCOCC1F` (stereo partly shown) [Example 249] the value was 554 nM.
As for `Cc1cc2nc(Nc3cc(NC(C)C)c(C(=O)NC[C@@H](F)C(C)(C)O)cn3)ccn2n1` [Example 250], the IC50 under setting [2] amounted to 748 nM.
As for `CC(C)(O)[C@H](F)CNC(=O)c1cnc(Nc2ccn3nccc3n2)cc1NC1CCC(F)(F)C1` (stereo partly shown) [Example 258], the IC50 under setting [1] turned out to be 432 nM.
Turning to `CC(C)(O)[C@H](F)CNC(=O)c1cnc(Nc2ccn3nccc3n2)cc1NC1CCC(F)(F)C1` (stereo partly shown) [Example 259], the IC50 under setting [1] came out at 132 nM.
With `CC(C)(O)[C@H](F)CNC(=O)c1cnc(Nc2ccn3nccc3n2)cc1NC1CCOCC1F` (stereo partly shown) [Example 266], under setting [1], the IC50 was 548 nM.
On to `CC(C)(O)[C@H](F)CNC(=O)c1cnc(Nc2nc3ccnn3cc2F)cc1NC1CC1` [Example 269], for which, under setting [2], the IC50 was found to be 445 nM.
For `CC(C)(O)[C@H](F)CNC(=O)c1cnc(Nc2ccn3nccc3n2)cc1NC1CCOCC1F` (stereo partly shown) [Example 270], under setting [1], the 50% inhibitory concentration (IC50) amounted to 265 nM.
As to `CC(C)(O)[C@H](F)CNC(=O)c1cnc(Nc2ccn3nccc3n2)cc1NC1CCOCC1F` (stereo partly shown) [Example 271], the IC50 under setting [1] turned out to be 128 nM.
With `Cc1cnc2ccc(Nc3cc(NC4CC4)c(C(=O)NC[C@@H](F)C(C)(C)O)cn3)nn12` [Example 276], the IC50 under setting [2] worked out at 256 nM.
Turning to `CN(C)C(=O)c1ccc(Nc2cc(Nc3ccc4ncsc4c3)ncc2C(=O)NC[C@@H](F)C(C)(C)O)cc1` [Example 323], under setting [2], the IC50 stood at 207 nM.
With `CC(C)(O)[C@H](F)CNC(=O)c1cnc(Nc2ccc3ncsc3c2)cc1NC1CCCC1O` (stereo partly shown) [Example 335], under setting [2], the IC50 came to 135 nM.
The same measure, in the same setting: for `CC(C)(O)[C@H](F)CNC(=O)c1cnc(Nc2ccc3ncoc3c2)cc1N[C@@H]1CCC[C@H]1O` [Example 336] the value was 466 nM.
`CC(C)(O)[C@H](F)CNC(=O)c1cnc(Nc2ccc3ncncc3c2)cc1NC1CCCC1F` (stereo partly shown) [Example 345]: the IC50 under setting [2] turned out to be 246 nM.
Take `CC(C)Nc1cc(Nc2ncc3ncccc3n2)ncc1C(=O)NC[C@@H](F)C(C)(C)O` [Example 370]: the IC50 under setting [2] came out at 571 nM.
Take `Cc1cc2nc(Nc3cc(NC4CCC(F)C4)c(C(=O)NC[C@@H](F)C(C)(C)O)cn3)ccn2n1` (stereo partly shown) [Example 380]: the IC50 under setting [1] is 468 nM.
Regarding `CC(C)Nc1cc(Nc2ccc3[nH]c(=O)oc3c2)ncc1C(=O)NC[C@@H](F)C(C)(C)O` [Example 393], the IC50 under setting [2] worked out at 392 nM.
Consider `CC(C)(O)[C@H](F)CNC(=O)c1cnc(Nc2ccc3ncsc3c2)cc1Nc1ccc(-c2cc[nH]n2)cc1` [Example 414], for which the IC50 under setting [2] came to 256 nM.
Regarding `CC(C)(O)[C@H](F)CNC(=O)c1cnc(Nc2ccc3ncsc3n2)cc1NC1CCOCC1F` (stereo partly shown) [Example 418], the IC50 under setting [1] came out at 30 nM.
Regarding `CC(C)(O)[C@H](F)CNC(=O)c1cnc(Nc2ccc3ncccc3n2)cc1NC1CCCOC1` (stereo partly shown) [Example 431], the IC50 under setting [1] was 220 nM.
Still for that read-out and setting: for `CC(C)(O)[C@H](F)CNC(=O)c1cnc(Nc2ccc3ncccc3n2)cc1NC1CCCOC1` (stereo partly shown) [Example 432] the value was 503 nM.
For `CC(C)Nc1cc(Nc2ncc3ncsc3c2F)ncc1C(=O)NC[C@@H](F)C(C)(C)O` [Example 440], under setting [2], the IC50 was 330 nM.
On to `CC(C)(O)[C@H](F)CNC(=O)c1cnc(Nc2nc3ccnn3cc2F)cc1NC1CCCC1F` (stereo partly shown) [Example 463], for which the IC50 under setting [1] was determined as 204 nM.
With `CC(C)(O)[C@H](F)CNC(=O)c1cnc(Nc2nc3ccnn3cc2F)cc1NC1CCCC1O` (stereo partly shown) [Example 464], the IC50 under setting [1] came out at 843 nM.

(Values after patent publication US9546153B2, “Bicyclic heterocycle substituted pyridyl compounds useful as kinase modulators” (BRISTOL-MYERS SQUIBB COMPANY, priority 2012, dated 2017).)
